Measurements published in US5659023A, “Nucleotide analogues” (Gilead Sciences, Inc., priority 1995, dated 1997).
Read-outs that look alike come from different tables or passages of the source.

Key:
[1] = toxicity assay in normal human dermal fibroblasts; assay type: cell-based
Protocol: (§1) Compounds made in the foregoing examples were assayed for inhibitory effect against human CMV using the standard plaque inhibition assay (Lurain, "J. Vir." 66:7146-7152 (1992)). The cells used for the toxicity assay were normal human dermal fibroblasts.

human CMV = assay: standard plaque inhibition assay, inhibitory effect against human CMV; assay type: cell-based; settings: Human betaherpesvirus 5
Protocol: as §1

[2] = human CMV, plaque inhibition assay (Table 8), read-out: IC50

SMILES	CC50 [1]	IC50 (human CMV; [2])	IC50 (human CMV)	CC50 ([1]; reference HPMPC, read-out: CC50)	IC50 (human CMV; reference HPMPC, read-out: IC50)
Nc1ccn([C@@H]2CC=C(P(=O)(O)O)O[C@@H]2CO)c(=O)n1 [(28'), 4-(cytosin-1-yl)-2,3-dideoxy-D-threo-hex-1-enopyranosyl phosphonic acid]	> 1000 µM	40 µM			
Nc1ccn([C@@H]2C=C[C@H](P(=O)(O)O)O[C@@H]2CO)c(=O)n1 [(30), 4-(cytosin-1-yl)-2,3-dideoxy-β-D-threo-hex-2-enopyranosylphosphonic acid]	> 1000 µM		10 µM		
Nc1ccn([C@@H]2CC[C@H](P(=O)(O)O)O[C@@H]2CO)c(=O)n1 [(32'), 4-(cytosin-1-yl)-β-D-threo-hexopyranosylphosphonic acid]	> 1000 µM	80 µM			
C[C@@H]1O[C@H](P(=O)(O)O)C=C[C@@H]1n1ccc(N)nc1=O [(64), 4-(cytosin-1-yl)-2,3,6-trideoxy-β-L-threo-hex-2-enopyranosylphosphonic acid]	> 1000 µM	200 µM			
C[C@@H]1OC(P(=O)(O)O)=CC[C@@H]1n1ccc(N)nc1=O [(65), 4-(cytosin-1-yl)-2,3,6-trideoxy-L-threo-hex-1-enopyranosylphosphonic acid]	> 1000 µM	300 µM			
Nc1ccn(C[C@@H](CO)OCP(=O)(O)O)c(=O)n1 [HPMPC, reference compound]				200 µM	0.5 µM
